Data on 14 molecules can be found in US20260092074A1, “Annelated Pyridines as Steroidogenesis Inhibitors, Preparation Method and Use Thereof” (Guangzhou Vinnocent Pharmaceutical Limited, priority 2022, published 2026).

pIC50: −log10 of the molar value.

In one experiment the target is T1, human CYP11B1 (Homo sapiens, UniProt P15538).
T1 construct: expressed in transfected cells
T1 sequence (P15538 25-503): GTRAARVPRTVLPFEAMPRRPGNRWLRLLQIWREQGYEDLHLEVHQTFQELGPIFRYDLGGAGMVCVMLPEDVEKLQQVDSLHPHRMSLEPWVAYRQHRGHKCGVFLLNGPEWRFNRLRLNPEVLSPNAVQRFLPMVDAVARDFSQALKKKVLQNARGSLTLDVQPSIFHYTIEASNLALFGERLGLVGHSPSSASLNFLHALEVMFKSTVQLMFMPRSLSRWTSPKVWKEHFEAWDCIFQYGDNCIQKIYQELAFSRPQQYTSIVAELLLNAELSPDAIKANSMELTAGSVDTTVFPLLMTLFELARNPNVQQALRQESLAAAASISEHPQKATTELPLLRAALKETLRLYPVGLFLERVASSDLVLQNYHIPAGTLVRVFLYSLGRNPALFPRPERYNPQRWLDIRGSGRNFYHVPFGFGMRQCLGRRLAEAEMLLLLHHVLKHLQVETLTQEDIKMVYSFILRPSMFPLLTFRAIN
The experiment can be described thus: Inhibition of hCYP11B1 in transfected V79 cells. To be noted: hamster V79 cells expressing human CYP11B1; substrate 11-deoxycortisol 200 nM. It is filed as cell-based. Put shortly: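 Reactions started with 200 nM 11-deoxycortisol, ran for 30 min and were stopped with ethyl acetate, after a 2 h compound preincubation. The host was stably transfected V79 hamster cells carrying human CYP11B1 plus rat P450 reductase. Percent inhibition, from LC-MS/MS or HPLC (260 nm) quantitation of substrate and product, gave the IC50.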

In the next experiment the target is T2, human CYP11B2 (Homo sapiens, UniProt P19099).
T2 construct: expressed in transfected cells
T2 sequence (P19099 25-503): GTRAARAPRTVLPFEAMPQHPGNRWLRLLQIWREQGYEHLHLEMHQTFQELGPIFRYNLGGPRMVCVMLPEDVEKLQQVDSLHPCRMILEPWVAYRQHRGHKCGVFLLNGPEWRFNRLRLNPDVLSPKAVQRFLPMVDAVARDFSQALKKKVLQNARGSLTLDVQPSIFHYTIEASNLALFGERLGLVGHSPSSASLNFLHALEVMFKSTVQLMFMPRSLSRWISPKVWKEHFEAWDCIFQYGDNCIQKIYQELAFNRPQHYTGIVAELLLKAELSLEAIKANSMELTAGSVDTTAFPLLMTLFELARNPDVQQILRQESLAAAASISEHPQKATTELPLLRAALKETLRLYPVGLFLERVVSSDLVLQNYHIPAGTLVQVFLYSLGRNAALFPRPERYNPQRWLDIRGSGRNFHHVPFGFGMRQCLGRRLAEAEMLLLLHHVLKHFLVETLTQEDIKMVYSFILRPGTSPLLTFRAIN
The experiment can be described thus: Inhibition of hCYP11B2 in transfected V79 cells. It is filed as cell-based. To be noted: hamster V79 cells expressing human CYP11B2; substrate 11-deoxycorticosterone 200 nM. Put shortly: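 The substrate (200 nM, 30 min) was added after a 2 hour compound pre-incubation in lentivirus-transduced V79 cells stably expressing human CYP11B2 plus rat NADPH-P450 reductase.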

`Cn1cnc2cncc(-c3ccc(C#N)cc3)c21` [N6, 4-(1-Methyl-1H-imidazo[4,5-c]pyridin-7-yl)benzonitrile]: the pIC50 on human CYP11B1 and at human CYP11B2 was 6.18 throughout.

As for `N#Cc1ccc(-c2cncc3ncn(C4CC4)c23)cc1` [N7, 4-(1-Cyclopropyl-1H-imidazo[4,5-c]pyridin-7-yl)benzonitrile], the negative logarithm of the IC50 (pIC50) against human CYP11B1 was 6.34; against human CYP11B2, 6.17.

Consider `N#Cc1ccc(-c2cncc3c2OCCN3S(=O)(=O)c2ccccc2)cc1` [O1, 4-(4-(Phenylsulfonyl)-3,4-dihydro-2H-pyrido[4,3-b][1,4]oxazin-8-yl)benzonitrile], for which the pIC50 against human CYP11B1 was 9.66; against human CYP11B2, 9.80.

Take `N#Cc1ccc(-c2cncc3c2OCCN3S(=O)(=O)c2ccc(F)cc2)cc1` [O2, 4-(4-((4-Fluorophenyl)sulfonyl)-3,4-dihydro-2H-pyrido[4,3-b][1,4]oxazin-8-yl)benzonitrile]: the results for the pIC50 at human CYP11B1 and at human CYP11B2 were 9.25 and 9.89, respectively.

Take `N#Cc1ccc(-c2cncc3c2OCCN3S(=O)(=O)c2cccc(F)c2)cc1` [O3, 4-(4-((3-Fluorophenyl)sulfonyl)-3,4-dihydro-2H-pyrido[4,3-b][1,4]oxazin-8-yl)benzonitrile]: the negative logarithm of the IC50 (pIC50) on human CYP11B1 was 10.00; against human CYP11B2, 9.85.

Turning to `Cc1ccc(S(=O)(=O)N2CCOc3c(-c4ccc(C#N)cc4)cncc32)cc1` [O4, 4-(4-Tosyl-3,4-dihydro-2H-pyrido[4,3-b][1,4]oxazin-8-yl)benzonitrile], the pIC50 against human CYP11B1 and at human CYP11B2 was 10.00 in each case.

Consider `Cc1cccc(S(=O)(=O)N2CCOc3c(-c4ccc(C#N)cc4)cncc32)c1` [O5, 4-(4-(m-Tolylsulfonyl)-3,4-dihydro-2H-pyrido[4,3-b][1,4]oxazin-8-yl)benzonitrile], for which the pIC50 on human CYP11B1 was 9.32; against human CYP11B2, 9.64.

Consider `N#Cc1ccc(-c2cncc3c2OCCN3S(=O)(=O)c2ccc(Cl)cc2)cc1` [O6, 4-(4-((4-Chlorophenyl)sulfonyl)-3,4-dihydro-2H-pyrido[4,3-b][1,4]oxazin-8-yl)benzonitrile], for which the pIC50 against human CYP11B1 was 9.18; on human CYP11B2 it was 9.39.

In the case of `N#Cc1ccc(-c2cncc3c2OCCN3S(=O)(=O)c2cccc(Cl)c2)cc1` [O7, 4-(4-((3-Chlorophenyl)sulfonyl)-3,4-dihydro-2H-pyrido[4,3-b][1,4]oxazin-8-yl)benzonitrile], the negative-log IC50 (pIC50) is 9.92 against human CYP11B1 and 9.33 against human CYP11B2.

`COc1ccc(S(=O)(=O)N2CCOc3c(-c4ccc(C#N)cc4)cncc32)cc1` [O8, 4-(4-((4-Methoxyphenyl)sulfonyl)-3,4-dihydro-2H-pyrido[4,3-b][1,4]oxazin-8-yl)benzonitrile]: the negative-log IC50 (pIC50) on human CYP11B1 and at human CYP11B2 was 10.70 in each case.

Consider `N#Cc1ccc(-c2cncc3c2OCCN3S(=O)(=O)c2ccc([N+](=O)[O-])cc2)cc1` [O9, 4-(4-((4-Nitrophenyl)sulfonyl)-3,4-dihydro-2H-pyrido[4,3-b][1,4]oxazin-8-yl)benzonitrile], for which the pIC50 on human CYP11B1 was 8.96; against human CYP11B2, 9.96.

Turning to `N#Cc1ccc(-c2cncc3c2OCCN3S(=O)(=O)c2cccc([N+](=O)[O-])c2)cc1` [O10, 4-(4-((3-Nitrophenyl)sulfonyl)-3,4-dihydro-2H-pyrido[4,3-b][1,4]oxazin-8-yl)benzonitrile], the results for the pIC50 at human CYP11B1 and at human CYP11B2 were 8.55 and 9.39, respectively.

For `N#Cc1ccc(-c2cncc3c2OCCN3S(=O)(=O)c2ccc(C(F)(F)F)cc2)cc1` [O11, 4-(4-((4-(Trifluoromethyl)phenyl)sulfonyl)-3,4-dihydro-2H-pyrido[4,3-b][1,4]oxazin-8-yl)benzonitrile], the figures for the negative-log IC50 (pIC50) at human CYP11B1 and on human CYP11B2 were 8.70 and 10.40, respectively.

`N#Cc1ccc(-c2cncc3c2OCCN3S(=O)(=O)c2cccc(C(F)(F)F)c2)cc1` [O12, 4-(4-((3-(Trifluoromethyl)phenyl)sulfonyl)-3,4-dihydro-2H-pyrido[4,3-b][1,4]oxazin-8-yl)benzonitrile]: the pIC50 was 9.13 at human CYP11B1 and 9.74 against human CYP11B2.

A word on the pIC50: it is the negative decadic logarithm of the IC50, by convention in mol/L. High values mean a low IC50, low ones a high IC50.
